# From article PMC5011342, “A high throughput drug screening assay to identify compounds that promote oligodendrocyte differentiation using acutely dissociated and purified oligodendrocyte precursor cells” (BMC Research Notes, 2016)
# Read-outs that look alike come from different tables or passages of the source.
# Experiments:
# [1] = test system: acutely dissociated and purified rat OPCs; experiment: Acute OL differentiation assay (MBP expression/cell, immunofluorescent image quantification); assay type: cell-based; conditions: relative to quetiapine, sheet "All OLga data"
# Procedure: In order to identify compounds with the potential to promote OL differentiation in vivo and thereby enhance remyelination, we first wanted to establish an in vitro assay system that would closely mimic conditions in vivo. To do this, we started by using OPCs acutely isolated from postnatal day 6–7 (P6–7) rat brains by O4 immunopanning. […] OPCs were plated directly onto a biological substrate (PDL/laminin) in 96-well view plates at moderate density to allow for sufficient room to expand processes during differentiation. We plated cells in serum-free medium lacking OPC mitogens (no PDGF or FGF) to allow a basal level of OL differentiation to commence, and as a positive control added thyroid hormone (T3, 40 ng/ml) to accelerate differentiation (Fig. 1, flow scheme).
# Fig. 1 Flow scheme of the acute OL differentiation assay. a Purified oligodendrocyte precursor cells (OPCs) were cultured from P7 rat cortex and plated into PDL/laminin pre-coated 96-well plates. b One hour later test compounds were added. c OPC cultures with compound were maintained in culture for an additional 4 days. d On the 5th day with compound, cells were fixed and immunostained with anti-MBP antibodies and DAPI. e Images were acquired with automated fluorescence microscopy and scored phenotypically for OL differentiation (see “Methods” section)
# To quantify the extent of OL differentiation occurring in treatment conditions, we measured the overall amount of MBP expression/cell (see “Methods” section). Figure 2a depicts the mask created over MBP staining under which the MBP expression was quantified. […]
# All animal work was carried out in strict accordance with the recommendations in the Guide for the Care and Use of Laboratory Animals of the National Institutes of Health. The protocol was approved by the Institutional Use and Care and Use Committee at the Molecular Medicine Research Institute (Sunnyvale, CA). Animals used for OPC isolation in these studies were euthanized by decapitation. OPCs from brains of P6-P7 Sprague–Dawley rat pups (Charles River, Wilmington, MA, USA) were enriched by immunopanning as previously described (Dugas et al. 2006). Briefly, single cell suspensions were obtained from papain-digested neonatal brains and depleted of mature glial cells by successive panning with RAN-2- and GalC-coated plates, followed by enrichment for OPCs using O4-coated plates. OPCs were plated in differentiation media (DMEM, 100 U/ml Penicillin/100 µg/ml streptomycin, 2 mM L-glutamine, 1 mM Na pyruvate, 5 µg/ml insulin, 5 µg/ml N-acetyl-L-cysteine, 1× trace elements B,10 ng/ml d-Biotin, 100 µg/ml BSA, 100 µg/ml apo-transferrin, 16 µg/ml putrescine, 60 ng/ml progesterone, 40 ng/ml sodium selenite 5 ng/ml forskolin, 10 ng/ml CNTF, 1 ng/ml NT-3).
# Acutely enriched OPCs were plated in differentiation media at 5000 cells/well into PDL/laminin coated 96-well view plates and centrifuged at 200×g to facilitate cell attachment, survival, and even distribution of OPCs. OPCs were pre-incubated for 1–2 h at 37 °C in 10 % CO2, followed by the addition of test compounds in quadruplicate. Controls were added in eight replicate wells, negative control = 0.1 % DMSO; positive control = 40 ng/ml T3. The day of OPC plating was considered DIV0. On DIV4, cells were fixed, immunostained for myelin basic protein (MBP) expression, imaged and quantified as described below.
# expanded OPCs = experiment: cells; conditions: for viability at 0.1 µM / viability at 1 µM / viability at 10 µM: Rattus norvegicus, 72 h
# Procedure: Having established a consistent assay for measuring OL differentiation in vitro, the next step was to utilize this assay to assess the ability of a wide array of compounds to promote OL differentiation. Prior to library screening, we first established the maximum non-toxic dose of each compound in the library. […] Therefore, we added each compound in the NIH clinical collection (NCC) library to OPCs at 10, 1, and 0.1 µM concentrations. Three days later, we assessed viability of the treated cells by measuring AlamarBlue fluorescence, a measure of cell viability (see “Methods” section). […] Appropriately, we established three sets of screening concentrations for library compounds: non-toxic compounds were tested at 10 and 2 µM, slightly toxic compounds (only toxic at 10 µM) were tested at 2 and 0.4 µM, and very toxic compounds were tested at 0.4 and 0.08 µM.
# OPCs were expanded in vitro by seeding into PDL-coated tissue culture flasks at 1000–2000 cells/cm^2 in differentiation media supplemented with 10 ng/ml PDGF-AA. Proliferating OPCs were fed every 2–3 days and supplemented with 2–3× concentration of PDGF as needed to prevent OPC differentiation. After 6–7 days of proliferation, OPCs were harvested by trypsinization, plated into PDL-coated 96-well Falcon plates and centrifuged at 200×g to facilitate cell attachment, survival, and even distribution of cells. Expanded OPCs were seeded in differentiation media at 10,000 cells/well and incubated for 2 h at 37 °C, 10 % CO2 prior to addition of compounds. The NCC library was diluted and added to cells at 10, 1, and 0.1 µM; each concentration was tested in quadruplicate. As a positive control for the induction of toxicity, 5 ng/ml tunicamycin was added to 8 wells in each plate. Three days later, a 1:10 dilution of alamarBlue® (AB) was added to each well and cells were incubated 4 h at 37 °C, 10 % CO2. AB fluorescence was measured using a PerkinElmer Victor II fluorescence microplate reader (PerkinElmer, Waltham, MA) with 560 nm excitation/590 nm emission filters. For library screening, the highest concentration of each compound was adjusted to a minimally toxic concentration based on this toxicity data. Compounds were additionally tested at a second concentration that was 1/5th of the top concentration. The final concentration of DMSO in each well was 0.1 %.
# [2] = alamarBlue viability of expanded OPCs, compound at 0.1 µM, sheet All Tox data
# [3] = alamarBlue viability of expanded OPCs, compound at 1 µM, sheet All Tox data
# [4] = alamarBlue viability of expanded OPCs, compound at 10 µM, sheet All Tox data
# [5] = Rattus norvegicus, 2 uM test compound, read-out: OL differentiation, 2 uM (% Quet)
# [6] = Rattus norvegicus, 10 uM test compound, read-out: OL differentiation, 10 uM (% Quet)
# [7] = read-out: 0.1 µM (% DMSO), alamarBlue viability of expanded OPCs, compound at 0.1 µM, sheet All Tox data
# [8] = read-out: 1 µM (% DMSO), alamarBlue viability of expanded OPCs, compound at 1 µM, sheet All Tox data
# [9] = read-out: 10 µM (% DMSO), alamarBlue viability of expanded OPCs, compound at 10 µM, sheet All Tox data
# [10] = read-out: 0.1 µM (% DMSO), alamarBlue viability, NCC library compound at 0.1 µM, sheet "All Tox data"
# [11] = read-out: 1 µM (% DMSO), alamarBlue viability, NCC library compound at 1 µM, sheet "All Tox data"
# [12] = read-out: 10 µM (% DMSO), alamarBlue viability, NCC library compound at 10 µM, sheet "All Tox data"
# [13] = Rattus norvegicus, test compound at 2 uM, NCC library screen, read-out: 2 uM (% Quet)
# [14] = Rattus norvegicus, test compound at 10 uM, NCC library screen, read-out: 10 uM (% Quet)
structure (smiles),measurement,setting,value
Cl.FC(F)(F)c1cccc(N2CCNCC2)c1,"OL differentiation, 2 uM (% Quet)",[1]; 2 uM test compound,23.8 % Quet
same,"OL differentiation, 10 uM (% Quet)",[1]; 10 uM test compound,20.8 % Quet
same,0.1 µM (% DMSO),expanded OPCs; [2],91.5 % DMSO
same,1 µM (% DMSO),expanded OPCs; [3],101.9 % DMSO
same,10 µM (% DMSO),expanded OPCs; [4],76.4 % DMSO
CC=CC(=O)N(CC)c1ccccc1C (mixture of isomers) [Crotamiton],activation at 2 µM,[1]; [5],1.7%
same,activation at 10 µM,[1]; [6],1.9%
same,viability at 0.1 µM,expanded OPCs; [7],92.3%
same,viability at 1 µM,expanded OPCs; [8],106%
same,viability at 10 µM,expanded OPCs; [9],97.8%
Oc1cc2c(cc1O)[C@H]1c3ccccc3CN[C@@H]1CC2 (racemic) [Dihydrexidine],activation at 0.08 µM,"[1]; Rattus norvegicus, test compound at 0.08 uM, NCC library screen, read-out: 0.08 uM (% Quet)",-13.3%
same,activation at 0.4 µM,"[1]; Rattus norvegicus, test compound at 0.4 uM, NCC library screen, read-out: 0.4 uM (% Quet)",-27.6%
same,viability at 0.1 µM,expanded OPCs; [10],81.4%
same,viability at 1 µM,expanded OPCs; [11],37.9%
same,viability at 10 µM,expanded OPCs; [12],9.8%
c1ccc(Cn2ccnc2)cc1 [1-Benzylimidazole],activation at 2 µM,[1]; [13],0.1%
same,activation at 10 µM,[1]; [14],10.7%
same,viability at 0.1 µM,expanded OPCs; [10],85.4%
same,viability at 1 µM,expanded OPCs; [11],91.8%
same,viability at 10 µM,expanded OPCs; [12],94.3%
"O=c1[nH]cnc2c1ncn2[C@H]1CC[C@@H](CO)O1 [2',3'-Dideoxyinosine]",activation at 2 µM,[1]; [5],10%
same,activation at 10 µM,[1]; [6],-0.07%
same,viability at 0.1 µM,expanded OPCs; [7],88.6%
same,viability at 1 µM,expanded OPCs; [8],88.2%
same,viability at 10 µM,expanded OPCs; [9],86.2%
NCCc1ccccn1 [2-(2-aminoethyl)pyridine],activation at 2 µM,[1]; [13],20.5%
same,activation at 10 µM,[1]; [14],16.9%
same,viability at 0.1 µM,expanded OPCs; [10],97.5%
same,viability at 1 µM,expanded OPCs; [11],81.9%
same,viability at 10 µM,expanded OPCs; [12],73.2%
Nc1nc(Cl)nc2c1ncn2[C@@H]1O[C@H](CO)[C@@H](O)[C@H]1O [2-Chloroadenosine],"OL differentiation, 2 uM (% Quet)",[1]; 2 uM test compound,8.0 % Quet
same,"OL differentiation, 10 uM (% Quet)",[1]; 10 uM test compound,32.5 % Quet
same,0.1 µM (% DMSO),"expanded OPCs; alamarBlue viability, NCC library compound at 0.1 µM, sheet ""All Tox data""",113.1 % DMSO
same,1 µM (% DMSO),"expanded OPCs; alamarBlue viability, NCC library compound at 1 µM, sheet ""All Tox data""",99.2 % DMSO
same,10 µM (% DMSO),"expanded OPCs; alamarBlue viability, NCC library compound at 10 µM, sheet ""All Tox data""",99.5 % DMSO
O=C1NC(C(=O)O)CS1 (stereo not drawn) [2-oxothiazolidine-4-carboxylic acid],"OL differentiation, 2 uM (% Quet)",[1]; 2 uM test compound,-5.5 % Quet
same,"OL differentiation, 10 uM (% Quet)",[1]; 10 uM test compound,20.5 % Quet
same,0.1 µM (% DMSO),expanded OPCs; [2],78.9 % DMSO
same,1 µM (% DMSO),expanded OPCs; [3],89.6 % DMSO
same,10 µM (% DMSO),expanded OPCs; [4],83.7 % DMSO
O=C(O)CCCc1ccccc1 [4-Phenylbutyric acid],activation at 2 µM,[1]; [13],9%
same,activation at 10 µM,[1]; [14],-4.1%
same,0.1 µM (% DMSO),"expanded OPCs; alamarBlue viability of expanded OPCs, compound at 0.1 µM, relative to DMSO control",90.4 % DMSO
same,1 µM (% DMSO),"expanded OPCs; alamarBlue viability of expanded OPCs, compound at 1 µM, relative to DMSO control",91.7 % DMSO
same,10 µM (% DMSO),"expanded OPCs; alamarBlue viability of expanded OPCs, compound at 10 µM, relative to DMSO control",104.6 % DMSO
